Assay results reported in ChEMBL document CHEMBL1201862, “PubChem BioAssay data set” (2004).
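Method: 48-hour compound exposure of cells in 96-well plates, five concentrations, linear interpolation of endpoints. GI50 = concentration required for 50% inhibition of growth.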 Calls of active or inactive are those of the source. Rule as the data show it: active = GI50 up to about 1.1 µM and inactive = higher.

Columns and labels:
Experiment in all cases: NCI tumour cell line growth inhibition, 48 h
OVCAR-5 = test system: OVCAR-5
CAKI-1 = test system: CAKI-1
HCT-15 = test system: HCT-15
A498 = test system: A498
786-0 = test system: 786-0
IGROV-1 = test system: IGROV-1
HL-60 = test system: HL-60
OVCAR-4 = test system: OVCAR-4
ACHN = test system: ACHN
NCI-H460 = test system: NCI-H460
NCI/ADR-RES = test system: NCI/ADR-RES
LOX IMVI = test system: LOX IMVI
Hs-578T = test system: Hs-578T
HCC 2998 = test system: HCC 2998
OVCAR-8 = test system: OVCAR-8
K562 = test system: K562
OVCAR-3 = test system: OVCAR-3
MOLT-4 = test system: MOLT-4
MCF7 = test system: MCF7
SW-620 = test system: SW-620
Malme-3M = test system: Malme-3M
HOP-62 = test system: HOP-62
EKVX = test system: EKVX
SNB-19 = test system: SNB-19
SF-539 = test system: SF-539
SK-OV-3 = test system: SK-OV-3
HOP-92 = test system: HOP-92
SN12C = test system: SN12C
HCT-116 = test system: HCT-116
A549 = test system: A549
COLO 205 = test system: COLO 205
MDA-MB-435 = test system: MDA-MB-435
UO-31 = test system: UO-31
CCRF-CEM = test system: CCRF-CEM
NCI-H23 = test system: NCI-H23
HT-29 = test system: HT-29
UACC-62 = test system: UACC-62
BT-549 = test system: BT-549
PC-3 = test system: PC-3
SK-MEL-2 = test system: SK-MEL-2
M14 = test system: M14
SF-268 = test system: SF-268
SK-MEL-5 = test system: SK-MEL-5
SF-295 = test system: SF-295
RPMI-8226 = test system: RPMI-8226
MDA-N = test system: MDA-N
TK-10 = test system: TK-10
UACC-257 = test system: UACC-257
NCI-H522 = test system: NCI-H522
NCI-H226 = test system: NCI-H226
SK-MEL-28 = test system: SK-MEL-28
MDA-MB-231 = test system: MDA-MB-231
RXF 393 = test system: RXF 393
SNB-75 = test system: SNB-75
DU-145 = test system: DU-145
KM12 = test system: KM12
U-251 = test system: U-251

With `O=C(Cn1c2c(c3ccccc31)CCCC2)N1CCOCC1` the GI50 (OVCAR-5) was 87.3 µM (inactive), the GI50 (CAKI-1) was > 100 µM (inactive) and the GI50 (HCT-15) was greater than 100 µM. The GI50 (A498) was > 100 µM (inactive), the GI50 (786-0) was > 100 µM (inactive) and the GI50 (IGROV-1) was > 100 µM (inactive). The GI50 (HL-60) was > 100 µM (inactive), the GI50 (OVCAR-4) was 44.4 µM (inactive) and the GI50 (ACHN) was > 100 µM (inactive). The GI50 (NCI-H460) was > 100 µM (inactive), the GI50 (NCI/ADR-RES) was > 100 µM (inactive) and the GI50 (LOX IMVI) was > 100 µM (inactive). For the same compound, the GI50 (Hs-578T) was 35.2 µM (inactive), the GI50 (HCC 2998) was > 100 µM (inactive) and the GI50 (OVCAR-8) was > 100 µM (inactive). The GI50 (K562) was > 100 µM (inactive), the GI50 (OVCAR-3) was > 100 µM (inactive) and the GI50 (MOLT-4) was > 100 µM (inactive). The GI50 (MCF7) was > 100 µM (inactive), the GI50 (SW-620) was > 100 µM (inactive) and the GI50 (Malme-3M) was > 100 µM (inactive). The GI50 (HOP-62) was > 100 µM (inactive), the GI50 (EKVX) was > 100 µM (inactive) and the GI50 (SNB-19) was > 100 µM (inactive). The GI50 (SF-539) was > 100 µM (inactive), the GI50 (SK-OV-3) was > 100 µM (inactive) and the GI50 (HOP-92) was > 100 µM (inactive). For the same compound, the GI50 (SN12C) was > 100 µM (inactive), the GI50 (HCT-116) was > 100 µM (inactive) and the GI50 (A549) was > 100 µM (inactive). The GI50 (COLO 205) was > 100 µM (inactive), the GI50 (MDA-MB-435) was > 100 µM (inactive) and the GI50 (UO-31) was 25.9 µM (inactive). The GI50 (CCRF-CEM) was > 100 µM (inactive), the GI50 (NCI-H23) was > 100 µM (inactive) and the GI50 (HT-29) was > 100 µM (inactive). For the same compound, the GI50 (UACC-62) was > 100 µM (inactive), the GI50 (BT-549) was > 100 µM (inactive) and the GI50 (PC-3) was > 100 µM (inactive). The GI50 (SK-MEL-2) was > 100 µM (inactive), the GI50 (M14) was > 100 µM (inactive) and the GI50 (SF-268) was > 100 µM (inactive). The GI50 (SK-MEL-5) was > 100 µM (inactive), the GI50 (SF-295) was > 100 µM (inactive) and the GI50 (RPMI-8226) was > 100 µM (inactive). The GI50 (MDA-N) was > 100 µM (inactive), the GI50 (TK-10) was > 100 µM (inactive) and the GI50 (UACC-257) was > 100 µM (inactive).
`O=P1(c2ccccc2)c2ccccc2-c2ccccc21` was tested, and the GI50 (CAKI-1) was 81.8 µM (inactive), the GI50 (NCI-H522) was > 100 µM (inactive) and the GI50 (HCT-15) was greater than 100 µM. For the same compound, the GI50 (NCI-H226) was > 100 µM (inactive), the GI50 (786-0) was > 100 µM (inactive) and the GI50 (IGROV-1) was > 100 µM (inactive). For the same compound, the GI50 (SK-MEL-28) was > 100 µM (inactive), the GI50 (HL-60) was 66.1 µM (inactive) and the GI50 (LOX IMVI) was > 100 µM (inactive). For the same compound, the GI50 (Hs-578T) was > 100 µM (inactive), the GI50 (HCC 2998) was > 100 µM (inactive) and the GI50 (OVCAR-8) was > 100 µM (inactive). The GI50 (K562) was 86.9 µM (inactive), the GI50 (MDA-MB-231) was > 100 µM (inactive) and the GI50 (RXF 393) was 93.8 µM (inactive). For the same compound, the GI50 (OVCAR-3) was 71 µM (inactive), the GI50 (MOLT-4) was 47.5 µM (inactive) and the GI50 (MCF7) was > 100 µM (inactive). For the same compound, the GI50 (SW-620) was > 100 µM (inactive), the GI50 (HOP-62) was > 100 µM (inactive) and the GI50 (EKVX) was > 100 µM (inactive). For the same compound, the GI50 (SNB-19) was > 100 µM (inactive), the GI50 (SNB-75) was 68.9 µM (inactive) and the GI50 (SF-539) was > 100 µM (inactive). The GI50 (SK-OV-3) was > 100 µM (inactive), the GI50 (HOP-92) was 13.9 µM (inactive) and the GI50 (SN12C) was > 100 µM (inactive). For the same compound, the GI50 (HCT-116) was 99.3 µM (inactive), the GI50 (A549) was > 100 µM (inactive) and the GI50 (COLO 205) was > 100 µM (inactive). The GI50 (MDA-MB-435) was > 100 µM (inactive), the GI50 (UO-31) was > 100 µM (inactive) and the GI50 (CCRF-CEM) was 55.5 µM (inactive). For the same compound, the GI50 (NCI-H23) was > 100 µM (inactive), the GI50 (UACC-62) was 82.2 µM (inactive) and the GI50 (BT-549) was 65.2 µM (inactive). The GI50 (PC-3) was 55.3 µM (inactive), the GI50 (SK-MEL-2) was > 100 µM (inactive) and the GI50 (M14) was > 10 µM (inactive). The GI50 (DU-145) was > 100 µM (inactive), the GI50 (SF-268) was > 100 µM (inactive) and the GI50 (KM12) was > 100 µM (inactive). For the same compound, the GI50 (SK-MEL-5) was 44.4 µM (inactive), the GI50 (SF-295) was 57.8 µM (inactive) and the GI50 (RPMI-8226) was 74.1 µM (inactive). For the same compound, the GI50 (MDA-N) was 97.7 µM (inactive), the GI50 (TK-10) was > 100 µM (inactive) and the GI50 (UACC-257) was > 100 µM (inactive).
`NC1=NC(=O)[C@H](Cc2c[nH]c3ccccc23)N1C(=O)OCc1ccccc1` was tested, and the GI50 (OVCAR-5) was > 100 µM (inactive), the GI50 (CAKI-1) was > 100 µM (inactive) and the GI50 (NCI-H522) was 37 µM (inactive). For the same compound, the GI50 (HCT-15) was greater than 100 µM, the GI50 (A498) was 61 µM (inactive) and the GI50 (NCI-H226) was 84.5 µM (inactive). The GI50 (786-0) was > 100 µM (inactive), the GI50 (IGROV-1) was 77.6 µM (inactive) and the GI50 (SK-MEL-28) was < 0.01 µM (active). For the same compound, the GI50 (HL-60) was 31.7 µM (inactive), the GI50 (OVCAR-4) was 51.8 µM (inactive) and the GI50 (ACHN) was > 100 µM (inactive). The GI50 (NCI-H460) was 93.8 µM (inactive), the GI50 (NCI/ADR-RES) was > 100 µM (inactive) and the GI50 (U-251) was 69.7 µM (inactive). The GI50 (LOX IMVI) was 68.5 µM (inactive), the GI50 (Hs-578T) was 44.9 µM (inactive) and the GI50 (HCC 2998) was > 100 µM (inactive). For the same compound, the GI50 (OVCAR-8) was 46 µM (inactive), the GI50 (K562) was 30.8 µM (inactive) and the GI50 (MDA-MB-231) was > 100 µM (inactive). The GI50 (RXF 393) was 45.2 µM (inactive), the GI50 (OVCAR-3) was 59.7 µM (inactive) and the GI50 (MOLT-4) was 28.7 µM (inactive). The GI50 (MCF7) was 81.8 µM (inactive), the GI50 (SW-620) was > 100 µM (inactive) and the GI50 (Malme-3M) was 68.7 µM (inactive). The GI50 (HOP-62) was > 100 µM (inactive), the GI50 (EKVX) was 45.3 µM (inactive) and the GI50 (SNB-19) was > 100 µM (inactive). The GI50 (SNB-75) was 50.9 µM (inactive), the GI50 (SN12C) was 91 µM (inactive) and the GI50 (HCT-116) was 57.9 µM (inactive). The GI50 (COLO 205) was > 100 µM (inactive), the GI50 (MDA-MB-435) was 56.9 µM (inactive) and the GI50 (UO-31) was 38.1 µM (inactive). The GI50 (NCI-H23) was 38.1 µM (inactive), the GI50 (HT-29) was > 100 µM (inactive) and the GI50 (UACC-62) was 53.8 µM (inactive). For the same compound, the GI50 (BT-549) was 38.5 µM (inactive), the GI50 (PC-3) was 46 µM (inactive) and the GI50 (SK-MEL-2) was > 100 µM (inactive). The GI50 (DU-145) was 93.8 µM (inactive), the GI50 (SF-268) was 73.8 µM (inactive) and the GI50 (KM12) was > 100 µM (inactive). For the same compound, the GI50 (SK-MEL-5) was 40.3 µM (inactive), the GI50 (SF-295) was 75.3 µM (inactive) and the GI50 (MDA-N) was > 100 µM (inactive). For the same compound, the GI50 (TK-10) was > 100 µM (inactive) and the GI50 (UACC-257) was 49.3 µM (inactive).
